Reference: patent US20110039885A1, “METHODS FOR INCREASING ENDOTHELIAL PROGENITOR CELLS” (FibroGen, Inc., priority 2007, published 2011)

What was measured:
Format in all cases: in vivo, mouse
[1] = system: endothelial progenitor cells (EPCs), double positive KDR+/CD34+ cells, in blood; test: Blood EPC levels by FACS after oral dosing in mice; conditions: for Blood EPCs / Percent Blood EPCs: blood 6 h after final dose; for Blood EPCs Fold Increase Over Control / Percent Blood EPCs Fold Increase Over Control: vs vehicle control
Protocol: (§1) To examine the effect of compounds and methods of the present invention on endothelial progenitor cell (EPC) mobilization and EPC levels, the following studies were performed. Male Swiss-Webster mice were administered various compounds of the present invention via oral gavage using a ball-tipped gavage needle. Animals treated by oral gavage received a 10 ml/kg volume of either 0.5% carboxymethyl cellulose (CMC) with 0.1% Polysorbate 80 (vehicle control) or various doses (10-100 mg/kg) of a compound of the present invention in 0.5% CMC with 0.1% Polysorbate 80. Animals were dosed once daily for 3 or 4 days. Six hours after the final dosing, 200 μl blood samples were collected for detection of EPCs by FACS analysis as previously described. (Vasa et al. (2001) Circ Res 89:e1-e7.) Briefly, mononuclear cells were isolated from whole blood samples by erythrocyte depletion using red blood cell lysis buffer (eBioscience) according to the manufacturer's instructions. The remaining cells were incubated for one hour with monoclonal antibodies directed against mouse CD34 and mouse KDR, cell surface markers for EPCs (BD Pharmingen). Following incubation with the anti-CD34 and anti-KDR monoclonal antibodies, the samples were washed three times with sort buffer (PBS, 1% fetal bovine serum) and resuspended in sort buffer containing 50 μg/ml of propidium iodide. Samples were then analyzed for the presence and quantitation of EPCs by flow cytometry (FACS Calibur, Becton Dickinson). The cytometer was set to acquire 10 000 events. Two or three samples obtained from each animal were analyzed and the average recorded. EPCs were determined as double positive KDR+/CD34+ cells.

[2] = system: endothelial progenitor cells (EPCs), KDR+/CD34+ cells, in bone marrow; test: Bone marrow EPC levels by FACS after oral dosing in mice; conditions: for Percent Bone Marrow EPCs: tibia bone marrow 6 h after final dose; for Percent Bone Marrow EPCs Fold Increase Over Control: vs vehicle control
Protocol: as §1
To examine the effect of compounds and methods of the present invention on EPC levels in bone marrow, the following studies were performed. Male Swiss-Webster mice were administered various compounds of the present invention via oral gavage using a ball-tipped gavage needle. Animals treated by oral gavage received a 10 ml/kg volume of either 0.5% carboxymethyl cellulose (CMC) with 0.1% Polysorbate 80 (vehicle control) or various doses (10-100 mg/kg) of a compound of the present invention in 0.5% CMC with 0.1% Polysorbate 80. Animals were dosed once daily for 3 or 4 days. Six hours after the final dosing, bone marrow samples were taken from one tibia of each animal and suspended in buffer (PBS with 1% fetal bovine serum). Bone marrow suspensions were then filtered through nylon filters to remove stromal cells. Following filtration, the remaining cells were counted manually using a hemocytometer. Detection and quantitation of EPCs was performed by FACS analysis as described above in Example 1.

[3] = system: colony-forming unit-endothelial cells (CFU-EC) from blood; test: EPC colony forming assay (CFU-EC) ex vivo, blood of dosed mice; conditions: for Blood CFU-EC: blood 6 h after final dose, 12 days culture; for Blood CFU-EC Fold Increase Over Control: vs vehicle control
Protocol: To examine the effect of compounds and methods of the present invention on increasing EPCs, wherein the EPCs are functional EPCs, i.e., EPCs that are able to differentiate into mature endothelial cells, the following studies were performed in which the frequency of endothelial colony-forming cells was evaluated ex vivo. In one series of experiments, male Swiss-Webster mice were administered various compounds of the present invention via oral gavage using a ball-tipped gavage needle. Animals treated by oral gavage received a 10 ml/kg volume of either 0.5% carboxymethyl cellulose (CMC) with 0.1% Polysorbate 80 (vehicle control) or various doses (10-100 mg/kg) of a compound of the present invention in 0.5% CMC with 0.1% Polysorbate 80. Animals were dosed once daily for 3 or 4 days. Six hours after the final dosing, 200 μl blood samples were collected for analysis of EPC function and differentiation using an EPC colony forming assay. EPC colony forming assays were carried out as previously described. (Murphy et al. (2007) Arterioscler Thromb Vasc Biol 27:936-942.) Briefly, mononuclear cells were isolated from whole blood samples by erythrocyte depletion using red blood cell lysis buffer (eBioscience) according to the manufacturer's instructions. The remaining cells (50,000 cells/well) were plated on fibronectin coated 24-well dishes (BD, BioSciences Discovery Labware) and incubated in endothelial growth media (EGM-2 media, Cambrex) for 12 days. At the end the incubation period, EPC colonies were counted.

[4] = system: colony-forming unit-endothelial cells (CFU-EC) from bone marrow; test: EPC colony forming assay (CFU-EC) ex vivo, bone marrow of dosed mice; conditions: for Bone Marrow CFU-EC: tibia bone marrow 6 h after final dose, 12 days culture; for Bone Marrow CFU-EC Fold Increase Over Control: vs vehicle control
Protocol: EPC colony forming assays were carried out as previously described. (Murphy et al. (2007) Arterioscler Thromb Vasc Biol 27:936-942.) Briefly, mononuclear cells were isolated from whole blood samples by erythrocyte depletion using red blood cell lysis buffer (eBioscience) according to the manufacturer's instructions. The remaining cells (50,000 cells/well) were plated on fibronectin coated 24-well dishes (BD, BioSciences Discovery Labware) and incubated in endothelial growth media (EGM-2 media, Cambrex) for 12 days. At the end the incubation period, EPC colonies were counted. In another series of experiments, male Swiss-Webster mice were administered various compounds of the present invention via oral gavage using a ball-tipped gavage needle. Animals treated by oral gavage received a 10 ml/kg volume of either 0.5% carboxymethyl cellulose (CMC) with 0.1% Polysorbate 80 (vehicle control) or various doses (10-100 mg/kg) of a compound of the present invention in 0.5% CMC with 0.1% Polysorbate 80. Animals were dosed once daily for 3 or 4 days. Six hours after the final dosing, bone marrow samples were taken from one tibia of each animal. Bone marrow samples were then analyzed for EPC function and differentiation using an EPC colony forming assay as described above.

[5] = 60 mg/kg oral gavage once daily, 3 days
[6] = 100 mg/kg oral gavage once daily, 4 days
[7] = 20 mg/kg oral gavage once daily, 3 days
[8] = 20 mg/kg oral gavage once daily, 4 days
[9] = 60 mg/kg oral gavage once daily, 4 days

Compound: COc1ccc(Oc2ccc3c(O)c(C(=O)NCC(=O)O)ncc3c2)cc1 [Compound A, {[4-Hydroxy-7-(4-methoxy-phenoxy)-isoquinoline-3-carbonyl]-amino}-acetic acid]
- Blood EPCs [1, 5]: 24.7 cells/μl
- Percent Blood EPCs [1, 5]: 2.6 % gated cells
- Blood EPCs Fold Increase Over Control ([1]; 60 mg/kg oral, 3 days): 2.4 fold
- Percent Blood EPCs Fold Increase Over Control ([1]; 60 mg/kg oral, 3 days): 2.0 fold
- Blood EPCs [1, 6]: 309.0 cells/μl
- Percent Blood EPCs [1, 6]: 3.2 % gated cells
- Blood EPCs Fold Increase Over Control ([1]; 100 mg/kg oral, 4 days): 8.4 fold
- Percent Blood EPCs Fold Increase Over Control ([1]; 100 mg/kg oral, 4 days): 4.7 fold
- Percent Bone Marrow EPCs [2, 5]: 6.7 % gated cells
- Percent Bone Marrow EPCs Fold Increase Over Control ([2]; 60 mg/kg oral, 3 days): 2.0 fold
- Percent Bone Marrow EPCs [2, 6]: 14.1 % gated cells
- Percent Bone Marrow EPCs Fold Increase Over Control ([2]; 100 mg/kg oral, 4 days): 1.8 fold
- Blood CFU-EC [3, 5]: 16.8 colonies/50,000 cells
- Blood CFU-EC Fold Increase Over Control ([3]; 60 mg/kg oral, 3 days): 8.4 fold
- Blood CFU-EC [3, 6]: 17.8 colonies/50,000 cells
- Blood CFU-EC Fold Increase Over Control ([3]; 100 mg/kg oral, 4 days): 3.63 fold
- Bone Marrow CFU-EC [4, 5]: 29.0 colonies/50,000 cells
- Bone Marrow CFU-EC Fold Increase Over Control ([4]; 60 mg/kg oral, 3 days): 3.0 fold
- Bone Marrow CFU-EC [4, 6]: 24.8 colonies/50,000 cells
- Bone Marrow CFU-EC Fold Increase Over Control ([4]; 100 mg/kg oral, 4 days): 3.2 fold

Compound: Cc1nc(C(=O)NCC(=O)O)c(O)c2ccc(Oc3ccccc3)cc12 [Compound B, [(4-Hydroxy-1-methyl-7-phenoxy-isoquinoline-3-carbonyl)-amino]-acetic acid]
- Blood EPCs [1, 5]: 10.4 cells/μl
- Percent Blood EPCs [1, 5]: 1.0 % gated cells
- Blood EPCs Fold Increase Over Control ([1]; 60 mg/kg oral, 3 days): 1.0 fold
- Percent Blood EPCs Fold Increase Over Control ([1]; 60 mg/kg oral, 3 days): 0.8 fold
- Blood EPCs [1, 6]: 304.0 cells/μl
- Percent Blood EPCs [1, 6]: 3.0 % gated cells
- Blood EPCs Fold Increase Over Control ([1]; 100 mg/kg oral, 4 days): 8.2 fold
- Percent Blood EPCs Fold Increase Over Control ([1]; 100 mg/kg oral, 4 days): 4.3 fold
- Percent Bone Marrow EPCs [2, 5]: 9.0 % gated cells
- Percent Bone Marrow EPCs Fold Increase Over Control ([2]; 60 mg/kg oral, 3 days): 2.7 fold
- Percent Bone Marrow EPCs [2, 6]: 16.1 % gated cells
- Percent Bone Marrow EPCs Fold Increase Over Control ([2]; 100 mg/kg oral, 4 days): 2.1 fold
- Blood CFU-EC [3, 5]: 12.4 colonies/50,000 cells
- Blood CFU-EC Fold Increase Over Control ([3]; 60 mg/kg oral, 3 days): 6.2 fold
- Blood CFU-EC [3, 6]: 9.3 colonies/50,000 cells
- Blood CFU-EC Fold Increase Over Control ([3]; 100 mg/kg oral, 4 days): 1.9 fold
- Bone Marrow CFU-EC [4, 5]: 22.0 colonies/50,000 cells
- Bone Marrow CFU-EC Fold Increase Over Control ([4]; 60 mg/kg oral, 3 days): 2.2 fold
- Bone Marrow CFU-EC [4, 6]: 22.4 colonies/50,000 cells
- Bone Marrow CFU-EC Fold Increase Over Control ([4]; 100 mg/kg oral, 4 days): 2.9 fold

Compound: Cc1cccc(C)c1Oc1ccc2c(C#N)nc(C(=O)NCC(=O)O)c(O)c2c1 [Compound C, {[1-Cyano-6-(2,6-dimethyl-phenoxy)-4-hydroxy-isoquinoline-3-carbonyl]-amino}-acetic acid]
- Blood EPCs [1, 7]: 151.9 cells/μl
- Percent Blood EPCs [1, 7]: 1.3 % gated cells
- Blood EPCs [1, 8]: 125.9 cells/μl
- Percent Blood EPCs [1, 8]: 0.7 % gated cells
- Blood EPCs Fold Increase Over Control ([1]; 20 mg/kg oral, 3 days): 4.2 fold
- Percent Blood EPCs Fold Increase Over Control ([1]; 20 mg/kg oral, 3 days): 1.8 fold
- Blood EPCs Fold Increase Over Control ([1]; 20 mg/kg oral, 4 days): 2.5 fold
- Percent Blood EPCs Fold Increase Over Control ([1]; 20 mg/kg oral, 4 days): 1.0 fold
- Blood EPCs [1, 5]: 195.1 cells/μl
- Percent Blood EPCs [1, 5]: 1.4 % gated cells
- Blood EPCs [1, 9]: 240.0 cells/μl
- Percent Blood EPCs [1, 9]: 1.0 % gated cells
- Blood EPCs Fold Increase Over Control ([1]; 60 mg/kg oral, 3 days): 5.4 fold
- Percent Blood EPCs Fold Increase Over Control ([1]; 60 mg/kg oral, 3 days): 1.9 fold
- Blood EPCs Fold Increase Over Control ([1]; 60 mg/kg oral, 4 days): 4.7 fold
- Percent Blood EPCs Fold Increase Over Control ([1]; 60 mg/kg oral, 4 days): 1.3 fold
- Percent Bone Marrow EPCs [2, 7]: 2.2 % gated cells
- Percent Bone Marrow EPCs [2, 8]: 0.6 % gated cells
- Percent Bone Marrow EPCs Fold Increase Over Control ([2]; 20 mg/kg oral, 3 days): 2.2 fold
- Percent Bone Marrow EPCs Fold Increase Over Control ([2]; 20 mg/kg oral, 4 days): 0.9 fold
- Percent Bone Marrow EPCs [2, 5]: 3.2 % gated cells
- Percent Bone Marrow EPCs [2, 9]: 0.9 % gated cells
- Percent Bone Marrow EPCs Fold Increase Over Control ([2]; 60 mg/kg oral, 3 days): 3.2 fold
- Percent Bone Marrow EPCs Fold Increase Over Control ([2]; 60 mg/kg oral, 4 days): 1.4 fold
- Blood CFU-EC [3, 7]: 7.7 colonies/50,000 cells
- Blood CFU-EC [3, 8]: 5.6 colonies/50,000 cells
- Blood CFU-EC Fold Increase Over Control ([3]; 20 mg/kg oral, 3 days): 4.3 fold
- Blood CFU-EC Fold Increase Over Control ([3]; 20 mg/kg oral, 4 days): 4.3 fold
- Blood CFU-EC [3, 5]: 7.4 colonies/50,000 cells
- Blood CFU-EC [3, 9]: 6.6 colonies/50,000 cells
- Blood CFU-EC Fold Increase Over Control ([3]; 60 mg/kg oral, 3 days): 4.14 fold
- Blood CFU-EC Fold Increase Over Control ([3]; 60 mg/kg oral, 4 days): 5.1 fold
- Bone Marrow CFU-EC [4, 7]: 25.7 colonies/50,000 cells
- Bone Marrow CFU-EC [4, 8]: 26.0 colonies/50,000 cells
- Bone Marrow CFU-EC Fold Increase Over Control ([4]; 20 mg/kg oral, 3 days): 5.1 fold
- Bone Marrow CFU-EC Fold Increase Over Control ([4]; 20 mg/kg oral, 4 days): 1.9 fold
- Bone Marrow CFU-EC [4, 5]: 28.0 colonies/50,000 cells
- Bone Marrow CFU-EC [4, 9]: 61.0 colonies/50,000 cells
- Bone Marrow CFU-EC Fold Increase Over Control ([4]; 60 mg/kg oral, 3 days): 5.6 fold
- Bone Marrow CFU-EC Fold Increase Over Control ([4]; 60 mg/kg oral, 4 days): 4.5 fold
